Results from publication PMC9395670 (Frontiers in Chemistry, 2022).
Entries after “also recorded” stand apart in the source; their conditions may differ. Where two headings read alike, the source gives them in different places.

Assays:
[1] = molecular target: T1, Aβ1–42 and human recombinant AChE (Homo sapiens, UniProt P22303); assay: Inhibition of AChE-induced Aβ1–42 aggregation (thioflavin T assay); assay type: biochemical; details: read-out: Inhibition of Aβ aggregation (%) AChE-induced
T1 construct: Aβ1–42 (Sigma A9810); purchased Sigma C1682 (AChE); A9810 (Aβ1–42)
Protocol: (§1) For this purpose, we used the thioflavin T (ThT) assay.
(§2) Aβ1–42 (Sigma A9810) 50 μM was dissolved in ammonium hydroxide (1% v/v) for pre-fibrillation and incubated for 72 h at 37°C. […] Next, 50 μl of thioflavin T (ThT, 200 μM) containing 50 mM glycine-NaOH buffer (pH 8.5) was added. […] The aggregation inhibition of the tested compounds was calculated on AChE or self-induced Aβ-aggregation according to the equation (1−IFi/IFc) × 100, where IFi and IFc are the fluorescence intensities in the presence of inhibitors and in the absence of inhibitors, respectively.

[2] = molecular target: T2, horse serum BuChE (eqBuChE) (Equus caballus, UniProt P81908); assay: biochemical; details: Ellman's method, 25°C, mean ± SEM of three experiments
T2 construct: horse serum BuChE (eqBuChE, Sigma-Aldrich); purchased Sigma-Aldrich; host or cells: horse serum
Protocol: (§3) This method is based on the reaction of acetylthiocholine with 5,5′´-dithio-bis-(2-nitrobenzoic) acid (DTNB) to yield the colored product.
(§4) AChE from E. electricus, and horse serum BuChE (eqBuChE, Sigma-Aldrich) 5,5-Dithiobis-(2-nitrobenzoic acid) (DTNB), and acetylthiocholine iodide (ATC) were purchased from Sigma Aldrich. […] In this procedure, five different concentrations of each compound were used at 25°C. […] For the in-vitro BuChE assay similar method has been used.

[3] = molecular target: T3, AChE from E. electricus (Electrophorus electricus, UniProt O42275); assay: biochemical
T3 construct: purchased Sigma Aldrich
Protocol: as §3, §4

[4] = Cell viability assay (MTT) in PC12 cells; assay type: cell-based; details: rat
Protocol: Safety is an important factor for CNS agents. In order to evaluate the cytotoxic effect of selected compounds 5a, 5f, 5h, 5i, and 5l, the in-vitro cell viability assay was investigated on the PC12 cell line using the MTT (3-(4,5-dimethylthiazol-2-yl)-2,5-diphenyltetrazolium bromide) assay. The PC12 cells were incubated with varying concentrations (0.01–100 μM) of the test compounds for 24 h. […] The results are expressed as the percentage of viable cells.
In order to evaluate cell viability of 5a, 5f, 5h, 5i, and 5l, the 3-(4,5-dimethylthiazol-2-yl)-2,5-diphenyl tetrazolium bromide (MTT) assay was performed using PC12 cell line. Cells were seeded in 96-well plates at a density of 5,000 cells/well for 24 h, and then cells were treated with tested compounds and glutamate (5 mM) and incubated at 37°C for 24 h. After that, the medium was removed and 20 μl of the MTT reagent (5 mg/ml) was added and incubated at 37 °C for 4 h. Then, the medium was replaced with 150 μl DMSO to solve formazan crystals. The absorbance was recorded by microplate reader apparatus (Biotek, Winooski, VT, United States) at 570 nm. The assay was performed in three independent experiments and triplicate.

[5] = molecular target: T4, Aβ1–42 (Homo sapiens, UniProt P05067); assay: Inhibition of self-induced Aβ1–42 aggregation (thioflavin T assay); assay type: biochemical; details: for inhibition at 10 µM: read-out: Inhibition of Aβ aggregation (%) Self-induced; for Effectiveness relative to donepezil in inhibition of self-induced Aβ aggregation: 10 μM
T4 construct: Aβ1–42 (Sigma A9810); purchased Sigma A9810
Protocol: as §1, §2

[6] = molecular target: AChE (Electrophorus electricus, UniProt O42275); assay: Kinetics study of AChE inhibition (Lineweaver-Burk plots); assay type: biochemical; details: inhibitor at 0.32, 0.64, 1.27 μM, substrate ATCh
Protocol: The inhibition model of acetylcholinesterase can be categorized into irreversible-type inhibition and reversible-type inhibition. […]. The type of inhibition can be concluded with a graphical analysis of the Lineweaver-Burk reciprocal plots ([Baharloo et al., 2015]).
[…]. The experiment was assayed in triplicate.

[7] = compound at 10 μM, ThT assay, mean ± SEM of three experiments
[8] = Ellman's method, 25°C, mean ± SEM of three experiments, read-out: IC50 (μM) AChE

T1 sequence (P22303 32-614): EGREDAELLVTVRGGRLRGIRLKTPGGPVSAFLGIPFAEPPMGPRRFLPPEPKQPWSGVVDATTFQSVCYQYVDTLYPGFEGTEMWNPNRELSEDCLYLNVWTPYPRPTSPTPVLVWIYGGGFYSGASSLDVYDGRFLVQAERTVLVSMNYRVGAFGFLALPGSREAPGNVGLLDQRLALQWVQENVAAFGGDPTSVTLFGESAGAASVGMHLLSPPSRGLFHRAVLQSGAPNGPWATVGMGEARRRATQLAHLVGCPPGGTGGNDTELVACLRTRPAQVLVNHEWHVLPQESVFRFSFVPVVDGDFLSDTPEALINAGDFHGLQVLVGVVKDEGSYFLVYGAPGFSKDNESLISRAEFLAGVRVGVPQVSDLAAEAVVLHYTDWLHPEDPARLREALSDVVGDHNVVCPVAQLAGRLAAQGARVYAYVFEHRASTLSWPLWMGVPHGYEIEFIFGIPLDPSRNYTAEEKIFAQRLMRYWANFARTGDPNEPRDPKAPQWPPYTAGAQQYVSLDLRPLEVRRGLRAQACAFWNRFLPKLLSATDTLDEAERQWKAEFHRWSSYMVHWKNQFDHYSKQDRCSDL
T4 sequence (P05067 672-713 limits assumed): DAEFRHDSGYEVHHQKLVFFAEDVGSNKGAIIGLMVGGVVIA
T3 sequence (O42275 24-633): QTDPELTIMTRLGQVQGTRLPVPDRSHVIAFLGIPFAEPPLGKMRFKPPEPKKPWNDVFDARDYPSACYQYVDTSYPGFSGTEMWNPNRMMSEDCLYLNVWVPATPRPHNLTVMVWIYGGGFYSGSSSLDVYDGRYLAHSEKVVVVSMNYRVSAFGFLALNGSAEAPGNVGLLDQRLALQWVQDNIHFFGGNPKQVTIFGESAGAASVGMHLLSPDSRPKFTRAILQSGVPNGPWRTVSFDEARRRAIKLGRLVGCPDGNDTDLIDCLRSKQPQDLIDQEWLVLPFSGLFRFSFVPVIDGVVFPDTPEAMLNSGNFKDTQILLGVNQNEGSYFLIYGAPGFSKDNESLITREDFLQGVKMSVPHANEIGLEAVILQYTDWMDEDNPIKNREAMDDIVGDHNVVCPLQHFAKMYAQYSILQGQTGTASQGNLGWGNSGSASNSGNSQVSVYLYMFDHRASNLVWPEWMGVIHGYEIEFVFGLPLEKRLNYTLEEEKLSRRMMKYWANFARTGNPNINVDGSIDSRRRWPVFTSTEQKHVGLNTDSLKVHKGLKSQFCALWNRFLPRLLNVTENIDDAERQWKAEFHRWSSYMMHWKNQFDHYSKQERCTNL
T2 sequence (P81908 whole entry): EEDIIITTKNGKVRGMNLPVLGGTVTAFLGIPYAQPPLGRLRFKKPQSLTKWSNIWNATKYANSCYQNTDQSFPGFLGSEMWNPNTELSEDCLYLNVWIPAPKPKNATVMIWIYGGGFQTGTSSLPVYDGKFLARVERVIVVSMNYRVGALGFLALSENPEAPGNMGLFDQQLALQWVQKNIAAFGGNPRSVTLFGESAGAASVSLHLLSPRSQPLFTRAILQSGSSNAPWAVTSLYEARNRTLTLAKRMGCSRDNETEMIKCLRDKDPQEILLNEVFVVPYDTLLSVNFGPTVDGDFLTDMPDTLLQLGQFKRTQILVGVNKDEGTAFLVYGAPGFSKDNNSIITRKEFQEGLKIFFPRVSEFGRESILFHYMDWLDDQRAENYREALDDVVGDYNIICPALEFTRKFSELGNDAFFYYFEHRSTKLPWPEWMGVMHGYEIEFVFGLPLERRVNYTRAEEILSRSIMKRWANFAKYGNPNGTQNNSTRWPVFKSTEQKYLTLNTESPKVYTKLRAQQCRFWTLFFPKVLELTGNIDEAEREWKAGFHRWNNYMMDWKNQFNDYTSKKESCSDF
Sequence of AChE (O42275 24-633): as the sequence (O42275 24-633) above

With `Nc1c(-c2cc[n+](Cc3ccccc3)cc2)oc2ccccc12` [5a, 4-(3-Aminobenzofuran-2-yl)-1-benzylpyridin-1-ium chloride] the inhibition at 100 µM [1] was 22.4 ± 1.6%, the IC50 [2] was 0.82 ± 0.07 µM and the IC50 [3] was 0.81 ± 0.02 µM. For the same compound, the viability at 24 h [4] was 85.9 ± 1.5% and the inhibition at 10 µM [5, 7] was 17.6 ± 3.8%.

Work on `Cc1ccccc1C[n+]1ccc(-c2oc3ccccc3c2N)cc1` [5b, 4-(3-Aminobenzofuran-2-yl)-1-(2-methylbenzyl) pyridin-1-ium chloride] yielded an IC50 [2] of 17.4 ± 2.45 µM and an IC50 [3, 8] of 3.29 ± 0.01 µM.

`Cc1cccc(C[n+]2ccc(-c3oc4ccccc4c3N)cc2)c1` [5c, 4-(3-Aminobenzofuran-2-yl)-1-(3-methylbenzyl) pyridin-1-ium chloride] showed an IC50 [2] of 12.9 ± 3.56 µM and an IC50 [3, 8] of 3.32 ± 0.04 µM.

`Cc1ccc(C[n+]2ccc(-c3oc4ccccc4c3N)cc2)cc1` [5d, 4-(3-Aminobenzofuran-2-yl)-1-(4-methylbenzyl) pyridin-1-ium chloride] gave an IC50 [2] of 25.3 ± 1.91 µM and an IC50 [3, 8] of 29.3 ± 0.82 µM.

In the case of `COc1cccc(C[n+]2ccc(-c3oc4ccccc4c3N)cc2)c1` [5e, 4-(3-Aminobenzofuran-2-yl)-1-(3-methoxybenzyl) pyridin-1-ium chloride], the IC50 [2] is reported as > 100 µM and the IC50 [3, 8] is reported as 81.1 ± 1.61 µM.

For `Nc1c(-c2cc[n+](Cc3ccccc3F)cc2)oc2ccccc12.[Cl-]` [5f, 4-(3-Aminobenzofuran-2-yl)-1-(2-fluorobenzyl) pyridin-1-ium chloride], the inhibition at 100 µM [1] was 30.1 ± 1.9%, the IC50 [2] was 0.55 ± 0.07 µM and the “Type of inhibition on AChE” value [6] was “mixed-type inhibition; also recorded: mixed-type inhibitory pattern”. The IC50 [3] was 0.64 ± 0.04 µM, the viability at 24 h [4] was 86.4 ± 2.6% and the “Effectiveness relative to donepezil in inhibition of self-induced Aβ aggregation” value ([5]; ThT assay) was “about 2 fold”. For the same compound, the inhibition at 10 µM [5, 7] was 29.8 ± 1.8%.

`Nc1c(-c2cc[n+](Cc3cccc(F)c3)cc2)oc2ccccc12` [5g, 4-(3-Aminobenzofuran-2-yl)-1-(3-fluorobenzyl) pyridin-1-ium chloride] gave an IC50 [2] of 2.89 ± 0.42 µM and an IC50 [3, 8] of 1.68 ± 0.02 µM.

`Nc1c(-c2cc[n+](Cc3ccc(F)cc3)cc2)oc2ccccc12.[Cl-]` [5h, 4-(3-Aminobenzofuran-2-yl)-1-(4-fluorobenzyl) pyridin-1-ium chloride] gave an inhibition at 100 µM [1] of 35.6 ± 1.5%, an IC50 [2] of 5.05 ± 0.73 µM and an IC50 [3] of 0.88 ± 0.04 µM. For the same compound, the viability at 24 h [4] was 88.2 ± 2.4%, the “Effectiveness relative to donepezil in inhibition of self-induced Aβ aggregation” value ([5]; ThT assay) was “about 2 fold” and the inhibition at 10 µM [5, 7] was 38.8 ± 2.8%.

Compound `Nc1c(-c2cc[n+](Cc3ccccc3Cl)cc2)oc2ccccc12` [5i, 4-(3-Aminobenzofuran-2-yl)-1-(2-chlorobenzyl) pyridin-1-ium chloride] has an inhibition at 100 µM [1] of 26.5 ± 3.8%, an IC50 [2] of 0.99 ± 0.05 µM and an IC50 [3] of 0.7 ± 0.01 µM. For the same compound, the viability at 24 h [4] was 90.2 ± 4.1% and the inhibition at 10 µM [5, 7] was 24.8 ± 1.5%.

`Nc1c(-c2cc[n+](Cc3cccc(Cl)c3)cc2)oc2ccccc12` [5j, 4-(3-Aminobenzofuran-2-yl)-1-(3-chlorobenzyl) pyridin-1-ium chloride] showed an IC50 [2] of 18.8 ± 1.11 µM and an IC50 [3, 8] of 2.99 ± 0.03 µM.

With `Nc1c(-c2cc[n+](Cc3ccc(Cl)cc3)cc2)oc2ccccc12` [5k, 4-(3-Aminobenzofuran-2-yl)-1-(4-chlorobenzyl) pyridin-1-ium chloride] the IC50 [2] was 31.2 ± 2.56 µM and the IC50 [3, 8] was 16.6 ± 0.52 µM.

In the case of `Nc1c(-c2cc[n+](Cc3ccccc3Br)cc2)oc2ccccc12` [5l, 4-(3-Aminobenzofuran-2-yl)-1-(2-bromobenzyl) pyridin-1-ium chloride], the inhibition at 100 µM [1] is reported as 22.4 ± 2.3%, the IC50 [2] is reported as 10.5 ± 0.19 µM and the IC50 [3] is reported as 1.34 ± 0.01 µM. For the same compound, the viability at 24 h [4] was 87.1 ± 2.9% and the inhibition at 10 µM [5, 7] was 25.7 ± 2.7%.

Work on `Nc1c(-c2cc[n+](Cc3cccc(Br)c3)cc2)oc2ccccc12` [5m, 4-(3-Aminobenzofuran-2-yl)-1-(3-bromobenzyl) pyridin-1-ium chloride] yielded an IC50 [2] of 13.9 ± 1.2 µM and an IC50 [3, 8] of 4.47 ± 0.02 µM.

Compound `Nc1c(-c2cc[n+](Cc3ccc(Br)cc3)cc2)oc2ccccc12` [5n, 4-(3-Aminobenzofuran-2-yl)-1-(4-bromobenzyl) pyridin-1-ium chloride] has an IC50 [2] of 22.6 ± 3.33 µM and an IC50 [3, 8] of 15.8 ± 0.91 µM.

`Nc1c(-c2cc[n+](Cc3ccccc3[N+](=O)[O-])cc2)oc2ccccc12` [5o, 4-(3-Aminobenzofuran-2-yl)-1-(2-nitrobenzyl) pyridin-1-ium chloride] showed an IC50 [2] of 28.63 ± 0.13 µM and an IC50 [3, 8] of 7.84 ± 0.05 µM.

In the case of `Nc1c(-c2cc[n+](Cc3ccc([N+](=O)[O-])cc3)cc2)oc2ccccc12` [5p, 4-(3-Aminobenzofuran-2-yl)-1-(4-nitrobenzyl) pyridin-1-ium chloride], the IC50 [2] is reported as 28.3 ± 0.48 µM and the IC50 [3, 8] is reported as 20.6 ± 0.8 µM.

Compound `COc1cc2c(cc1OC)C(=O)C(CC1CCN(Cc3ccccc3)CC1)C2` (stereo not drawn) [Donepezil, reference compound] has an inhibition at 10 µM [5] of 14.9 ± 2.5%.
